Assay results published in PMC10712727, “Safety, Tolerability, and Pharmacokinetics of Senaparib, a Novel PARP1/2 Inhibitor, in Chinese Patients With Advanced Solid Tumors: A Phase I Trial” (The Oncologist, 2023).

Test system: patients with advanced solid tumors
Assay: Safety: treatment-emergent and senaparib-related adverse events graded per NCI CTCAE v4.03
Format: in vivo
Experimental: This phase I, open-label, multicenter, dose-escalation, and dose-expansion study was conducted at three national clinical institutions in China. […] At baseline, all patients enrolled in the dose-escalation phase had to have at least one evaluable lesion, and those in the dose-expansion period had to have at least one measurable lesion, according to Response Evaluation Criteria in Solid Tumors version 1.1 (RECIST v1.1).[16] Entry to the dose-expansion cohort required the presence of a BRCA mutation, with the exception of patients with ovarian carcinoma, fallopian tube carcinoma, and primary peritoneal carcinoma. Full study eligibility criteria are provided in Supplementary Table S1.
Dose escalation was conducted using a modified Fibonacci 3 + 3 method (Supplementary Fig. S1).[17] Patients were administered oral senaparib from a planned starting dose of 2 mg once daily (QD), with preliminary dose escalation to 120 mg via nine dose groups, in order of their entry into the study. At a given dose level, each patient received a single dose of senaparib followed by a 7-day washout period. They then entered a continuous dosing period to confirm the safety and PK profile, in which they received senaparib QD from day 1 to day 21 of each 3-week cycle. Progression to the next higher dose required approval from the Data Safety Monitoring Committee (DSMC) upon review of the safety and PK data of the previous dose. A 50-mg twice-daily (BID) dosing group was added (planned enrollment, n = 6 patients) based on a DSMC review of the safety, PK, and efficacy analysis of the completed QD dose groups in the phase I clinical trial of senaparib dose escalation in Australia (NCT03507543), which commenced prior to the start of this trial.
The dose-expansion period included 3 populations: dose groups in which at least one patient achieved complete response (CR) or partial response (PR) per RECIST v1.1[16] and 1 dose group higher (evaluated for safety), as well as the dose group at the maximum tolerated dose (MTD)/recommended phase II dose (RP2D). Each of these groups included those patients in the respective dose-escalation group plus a planned additional 10 patients (approximately 20 patients in the MTD/RP2D group) with BRCA^mut+ solid tumors (ovarian, breast, or prostate cancer were preferred, and ovarian cancer could be BRCA wild type). Patients received senaparib monotherapy orally QD or BID (50-mg dose only) over each 3-week cycle until disease progression or unacceptable toxicity.
DLTs were predefined toxicities (Supplementary Table S2) recorded over the 7 days following the single-dose administration of senaparib and during the first treatment cycle (day 1-day 21) for each dose group in the dose-escalation period only. The MTD was defined as the maximum dose at which ≤1/6 patients experienced a DLT. Senaparib PK parameters were derived from blood samples collected from patients after the single administration, and at regular intervals during the first cycle of the dose-escalation and dose-expansion periods. Plasma concentrations of senaparib were determined using high-performance liquid chromatography-tandem mass spectrometry. Tumor response was assessed every 6 weeks per RECIST v1.1,[16] recording objective response rate (ORR), disease control rate (DCR), duration of response (DOR), and progression-free survival (PFS) by dose level for all patients and for those harboring BRCA^mut+ tumors.

O=C(c1cc(Cn2c(=O)[nH]c(=O)c3c(F)cccc32)ccc1F)N1CCN(c2ncccn2)CC1 [Senaparib]
Blood creatinine increased TRAE, Gr≥3 (10 mg QD n = 3): 0 n (%)
Hypokalemia TRAE, All (10 mg QD n = 3): 0 n (%)
Hypokalemia TRAE, Gr≥3 (10 mg QD n = 3): 0 n (%)
Nausea TRAE, All (10 mg QD n = 3): 0 n (%)
Nausea TRAE, Gr≥3 (10 mg QD n = 3): 0 n (%)
Neutrophil count decreased TRAE, All (10 mg QD n = 3): 0 n (%)
Neutrophil count decreased TRAE, Gr≥3 (10 mg QD n = 3): 0 n (%)
Platelet count decreased TRAE, All (10 mg QD n = 3): 0 n (%)
Platelet count decreased TRAE, Gr≥3 (10 mg QD n = 3): 0 n (%)
SAEs, events (10 mg QD n = 3): 0 n ev
SAEs, patients (10 mg QD n = 3): 0 n (%)
TEAE Grade ≥3, events (10 mg QD n = 3): 0 n ev
TEAE Grade ≥3, patients (10 mg QD n = 3): 0 n (%)
TEAEs leading to death, events (10 mg QD n = 3): 0 n ev
TEAEs leading to death, patients (10 mg QD n = 3): 0 n (%)
TEAEs leading to dose discontinuation, events (10 mg QD n = 3): 0 n ev
TEAEs leading to dose discontinuation, patients (10 mg QD n = 3): 0 n (%)
TEAEs leading to dose interruption, events (10 mg QD n = 3): 0 n ev
TEAEs leading to dose interruption, patients (10 mg QD n = 3): 0 n (%)
TEAEs leading to dose reduction, events (10 mg QD n = 3): 0 n ev
TEAEs leading to dose reduction, patients (10 mg QD n = 3): 0 n (%)
TRAEs Grade ≥3, events (10 mg QD n = 3): 0 n ev
TRAEs Grade ≥3, patients (10 mg QD n = 3): 0 n (%)
TRAEs, patients (10 mg QD n = 3): 3 (100) n (%)
Vomiting TRAE, All (10 mg QD n = 3): 0 n (%)
Vomiting TRAE, Gr≥3 (10 mg QD n = 3): 0 n (%)
WBC decreased TRAE, All (10 mg QD n = 3): 1 (33.3) n (%)
WBC decreased TRAE, Gr≥3 (10 mg QD n = 3): 0 n (%)
ALT increased TRAE, All (20 mg QD n = 5): 0 n (%)
ALT increased TRAE, Gr≥3 (20 mg QD n = 5): 0 n (%)
AST increased TRAE, All (20 mg QD n = 5): 0 n (%)
AST increased TRAE, Gr≥3 (20 mg QD n = 5): 0 n (%)
Anemia TRAE, All (20 mg QD n = 5): 1 (20.0) n (%)
Anemia TRAE, Gr≥3 (20 mg QD n = 5): 1 (20.0) n (%)
Any TEAE, All (20 mg QD n = 5): 5 (100) n (%)
Any TEAE, Gr≥3 (20 mg QD n = 5): 2 (40.0) n (%)
Any TEAE, events (20 mg QD n = 5): 30 n ev
Any TEAE, patients (20 mg QD n = 5): 5 (100) n (%)
Any TRAE, All (20 mg QD n = 5): 3 (60.0) n (%)
Any TRAE, Gr≥3 (20 mg QD n = 5): 1 (20.0) n (%)
Appetite decreased TRAE, All (20 mg QD n = 5): 0 n (%)
Appetite decreased TRAE, Gr≥3 (20 mg QD n = 5): 0 n (%)
Asthenia TRAE, All (20 mg QD n = 5): 1 (20.0) n (%)
Asthenia TRAE, Gr≥3 (20 mg QD n = 5): 0 n (%)
Blood bilirubin increased TRAE, All (20 mg QD n = 5): 0 n (%)
Blood bilirubin increased TRAE, Gr≥3 (20 mg QD n = 5): 0 n (%)
Blood creatinine increased TRAE, All (20 mg QD n = 5): 1 (20.0) n (%)
Blood creatinine increased TRAE, Gr≥3 (20 mg QD n = 5): 0 n (%)
Hypokalemia TRAE, All (20 mg QD n = 5): 1 (20.0) n (%)
Hypokalemia TRAE, Gr≥3 (20 mg QD n = 5): 0 n (%)
Nausea TRAE, All (20 mg QD n = 5): 1 (20.0) n (%)
Nausea TRAE, Gr≥3 (20 mg QD n = 5): 0 n (%)
Neutrophil count decreased TRAE, All (20 mg QD n = 5): 0 n (%)
Neutrophil count decreased TRAE, Gr≥3 (20 mg QD n = 5): 0 n (%)
Platelet count decreased TRAE, All (20 mg QD n = 5): 1 (20.0) n (%)
Platelet count decreased TRAE, Gr≥3 (20 mg QD n = 5): 0 n (%)
SAEs, events (20 mg QD n = 5): 1 n ev
SAEs, patients (20 mg QD n = 5): 1 (20.0) n (%)
